Test [1] deals with MAP/microtubule affinity-regulating kinase 3 (Homo sapiens) (UniProt P27448). Kind of test: Inhibition of MARK3 conserved Lys1 (EVAIKIIDK) in human PBMC at 0.1 uM.
Test [2] addresses Phosphatidylinositol 3-kinase catalytic subunit type 3 (Homo sapiens) (UniProt Q8NEB9). Kind of test: Inhibition of PIK3C3 ATP binding site (TEDGGKYPVIFKHGDDLR) in human PBMC at 0.1 uM.
For test [3], the target named is T1, Tyrosine-protein kinase JAK3 (Homo sapiens) (UniProt P52333).
T1 sequence (whole entry): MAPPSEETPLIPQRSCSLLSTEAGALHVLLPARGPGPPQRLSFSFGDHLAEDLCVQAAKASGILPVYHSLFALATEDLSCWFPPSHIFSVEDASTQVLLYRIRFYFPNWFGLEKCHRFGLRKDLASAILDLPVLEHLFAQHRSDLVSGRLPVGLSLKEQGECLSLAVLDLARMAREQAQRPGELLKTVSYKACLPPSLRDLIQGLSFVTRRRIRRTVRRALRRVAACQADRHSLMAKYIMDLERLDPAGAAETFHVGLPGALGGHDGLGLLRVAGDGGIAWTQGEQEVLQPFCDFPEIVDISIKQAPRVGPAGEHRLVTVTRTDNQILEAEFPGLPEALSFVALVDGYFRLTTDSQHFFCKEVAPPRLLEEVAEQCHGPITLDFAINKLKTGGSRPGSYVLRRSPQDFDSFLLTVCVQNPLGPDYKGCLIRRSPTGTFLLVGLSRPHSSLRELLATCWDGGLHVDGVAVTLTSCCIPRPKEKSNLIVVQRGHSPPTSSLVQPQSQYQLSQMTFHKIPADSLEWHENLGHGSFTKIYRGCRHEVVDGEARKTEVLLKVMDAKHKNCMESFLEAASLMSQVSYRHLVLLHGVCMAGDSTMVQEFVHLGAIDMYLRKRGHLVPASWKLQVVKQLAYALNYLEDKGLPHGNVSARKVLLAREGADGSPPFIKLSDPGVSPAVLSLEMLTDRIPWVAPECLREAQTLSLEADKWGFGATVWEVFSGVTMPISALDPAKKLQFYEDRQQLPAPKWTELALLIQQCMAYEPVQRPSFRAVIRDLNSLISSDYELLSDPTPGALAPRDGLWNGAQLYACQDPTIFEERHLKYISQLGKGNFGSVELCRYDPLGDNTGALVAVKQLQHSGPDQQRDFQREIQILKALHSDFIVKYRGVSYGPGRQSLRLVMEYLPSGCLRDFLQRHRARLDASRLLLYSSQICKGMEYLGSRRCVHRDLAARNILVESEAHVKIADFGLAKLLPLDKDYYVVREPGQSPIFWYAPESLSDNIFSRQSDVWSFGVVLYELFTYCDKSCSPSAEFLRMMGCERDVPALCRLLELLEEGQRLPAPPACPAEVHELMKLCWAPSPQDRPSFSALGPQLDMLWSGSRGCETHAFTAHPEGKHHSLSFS
Kind of test: Inhibition of JAK3 domain2 activation Loop (IADFGLAKLLPLDKDYYVVR) in human PBMC at 0.1 uM.

The target of test [4] is Phosphatidylinositol 4,5-bisphosphate 3-kinase catalytic subunit beta isoform (Homo sapiens) (UniProt P42338). Kind of test: Inhibition of PIK3CB ATP binding site (VFGEDSVGVIFKNGDDLRQDMLTLQMLR) in human PBMC at 1 uM.
The target in test [5] is T2, Interleukin-1 receptor-associated kinase 4 (Homo sapiens) (UniProt Q9NWZ3).
T2 sequence (whole entry): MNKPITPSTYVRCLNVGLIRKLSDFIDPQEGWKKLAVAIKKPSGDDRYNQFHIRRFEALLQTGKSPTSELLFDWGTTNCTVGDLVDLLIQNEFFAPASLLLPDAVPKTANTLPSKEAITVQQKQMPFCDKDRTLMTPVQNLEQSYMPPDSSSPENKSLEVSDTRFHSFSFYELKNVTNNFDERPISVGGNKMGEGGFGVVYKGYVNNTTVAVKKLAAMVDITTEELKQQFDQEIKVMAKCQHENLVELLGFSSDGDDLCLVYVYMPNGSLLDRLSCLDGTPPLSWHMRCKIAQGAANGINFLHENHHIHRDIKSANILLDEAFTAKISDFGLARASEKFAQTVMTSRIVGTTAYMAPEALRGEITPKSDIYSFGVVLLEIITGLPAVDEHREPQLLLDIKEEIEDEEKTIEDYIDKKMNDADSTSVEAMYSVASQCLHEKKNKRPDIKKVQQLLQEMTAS
Kind of test: Inhibition of IRAK4 conserved Lys2 (DIKSANILLDEAFTAK) in human PBMC at 1 uM.

Test [6] has as its target Tyrosine-protein kinase JAK1 (Homo sapiens) (UniProt P23458). Description: Inhibition of JAK1 domain1 (QLASALSYLEDKDLVHGNVCTKNLLLAR) in human PBMC at 1 uM.
In test [7] the target is Mitogen-activated protein kinase kinase kinase kinase 5 (Homo sapiens) (UniProt Q9Y4K4). Description: Inhibition of KHS1 conserved Lys1 (NVHTGELAAVKIIK) in human PBMC at 1 uM.
The target of test [8] is T3, Serine/threonine-protein kinase 4 (Homo sapiens) (UniProt Q13043).
T3 sequence (whole entry): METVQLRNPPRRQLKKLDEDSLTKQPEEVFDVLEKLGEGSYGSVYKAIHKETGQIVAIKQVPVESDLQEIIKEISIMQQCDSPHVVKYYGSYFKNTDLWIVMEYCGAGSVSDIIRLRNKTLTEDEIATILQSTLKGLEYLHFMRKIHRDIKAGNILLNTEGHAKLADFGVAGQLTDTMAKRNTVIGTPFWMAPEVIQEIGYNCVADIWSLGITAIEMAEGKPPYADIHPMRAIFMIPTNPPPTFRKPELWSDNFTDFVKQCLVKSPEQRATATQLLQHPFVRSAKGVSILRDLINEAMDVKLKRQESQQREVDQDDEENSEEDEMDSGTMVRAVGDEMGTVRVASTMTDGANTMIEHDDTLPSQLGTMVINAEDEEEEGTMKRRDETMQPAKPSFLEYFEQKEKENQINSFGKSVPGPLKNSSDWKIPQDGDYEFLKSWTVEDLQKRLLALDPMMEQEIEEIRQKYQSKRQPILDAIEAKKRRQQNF
Description: Inhibition of MST1 conserved Lys1 ETGQIVAIKQVPVESDLQEIIK in human PBMC at 1 uM.

The target in test [9] is Serine/threonine-protein kinase Nek6 (Homo sapiens) (UniProt Q9HC98). Kind of test: Inhibition of NEK6 conserved Lys2 (DIKPANVFITATGVVK) in human PBMC at 1 uM.
Test [10] deals with Tyrosine-protein kinase Fyn (Homo sapiens) (UniProt P06241). Kind of test: Inhibition of FYN activation Loop (QGAKFPIKWTAPEAALYGR) in human PBMC at 0.1 uM.
Test [11] concerns the target Calcium/calmodulin-dependent protein kinase type II subunit gamma (Homo sapiens) (UniProt Q13555). Description: Inhibition of CaMK2g labeling at conserved Lys2 (DLKPENLLLASK) in human PBMC at 0.1 uM.

Drawing on ChEMBL document CHEMBL4043168, “The design and SAR of a novel series of 2-aminopyridine based LRRK2 inhibitors” (Bioorg Med Chem Lett, 2017), this text covers inhibition for 1 molecule.

Chain of Tyrosine-protein kinase Fyn (Homo sapiens) (P06241 2-537 limits assumed): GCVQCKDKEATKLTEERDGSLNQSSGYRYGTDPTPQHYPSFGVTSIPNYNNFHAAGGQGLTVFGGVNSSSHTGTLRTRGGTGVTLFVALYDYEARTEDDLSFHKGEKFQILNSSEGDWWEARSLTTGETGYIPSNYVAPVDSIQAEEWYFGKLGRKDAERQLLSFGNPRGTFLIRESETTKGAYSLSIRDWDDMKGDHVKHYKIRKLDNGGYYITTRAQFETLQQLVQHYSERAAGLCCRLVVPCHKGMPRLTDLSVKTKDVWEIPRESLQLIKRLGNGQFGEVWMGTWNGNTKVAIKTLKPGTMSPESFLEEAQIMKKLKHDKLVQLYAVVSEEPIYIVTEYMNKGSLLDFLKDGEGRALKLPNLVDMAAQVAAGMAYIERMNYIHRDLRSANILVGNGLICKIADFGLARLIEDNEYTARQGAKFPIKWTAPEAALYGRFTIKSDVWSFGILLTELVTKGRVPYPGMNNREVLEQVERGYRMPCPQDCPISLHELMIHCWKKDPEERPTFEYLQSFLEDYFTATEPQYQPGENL
Chain of Mitogen-activated protein kinase kinase kinase kinase 5 (Homo sapiens) (Q9Y4K4 whole entry, looked up): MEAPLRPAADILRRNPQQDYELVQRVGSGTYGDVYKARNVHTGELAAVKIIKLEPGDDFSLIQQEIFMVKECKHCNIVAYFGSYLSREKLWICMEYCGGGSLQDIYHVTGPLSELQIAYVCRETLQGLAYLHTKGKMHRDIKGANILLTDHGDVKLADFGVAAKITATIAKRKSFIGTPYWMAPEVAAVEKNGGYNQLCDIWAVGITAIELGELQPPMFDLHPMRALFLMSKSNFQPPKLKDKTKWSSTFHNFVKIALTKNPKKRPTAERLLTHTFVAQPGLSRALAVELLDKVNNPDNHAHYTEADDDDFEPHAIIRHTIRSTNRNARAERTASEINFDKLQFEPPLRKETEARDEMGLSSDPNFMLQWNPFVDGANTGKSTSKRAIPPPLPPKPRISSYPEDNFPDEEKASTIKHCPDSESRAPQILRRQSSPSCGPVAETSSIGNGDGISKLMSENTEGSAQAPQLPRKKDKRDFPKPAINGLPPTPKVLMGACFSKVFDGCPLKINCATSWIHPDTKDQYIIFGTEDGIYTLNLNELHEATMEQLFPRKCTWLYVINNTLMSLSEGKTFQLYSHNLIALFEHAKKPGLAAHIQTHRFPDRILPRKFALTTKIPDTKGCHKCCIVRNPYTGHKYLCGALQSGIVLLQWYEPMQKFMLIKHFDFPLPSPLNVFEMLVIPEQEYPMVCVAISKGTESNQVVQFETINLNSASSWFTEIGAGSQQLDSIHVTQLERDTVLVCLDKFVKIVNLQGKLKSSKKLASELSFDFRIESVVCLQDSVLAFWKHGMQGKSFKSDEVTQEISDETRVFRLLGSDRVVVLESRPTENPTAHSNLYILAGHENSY
Chain of MAP/microtubule affinity-regulating kinase 3 (Homo sapiens) (P27448 whole entry, looked up): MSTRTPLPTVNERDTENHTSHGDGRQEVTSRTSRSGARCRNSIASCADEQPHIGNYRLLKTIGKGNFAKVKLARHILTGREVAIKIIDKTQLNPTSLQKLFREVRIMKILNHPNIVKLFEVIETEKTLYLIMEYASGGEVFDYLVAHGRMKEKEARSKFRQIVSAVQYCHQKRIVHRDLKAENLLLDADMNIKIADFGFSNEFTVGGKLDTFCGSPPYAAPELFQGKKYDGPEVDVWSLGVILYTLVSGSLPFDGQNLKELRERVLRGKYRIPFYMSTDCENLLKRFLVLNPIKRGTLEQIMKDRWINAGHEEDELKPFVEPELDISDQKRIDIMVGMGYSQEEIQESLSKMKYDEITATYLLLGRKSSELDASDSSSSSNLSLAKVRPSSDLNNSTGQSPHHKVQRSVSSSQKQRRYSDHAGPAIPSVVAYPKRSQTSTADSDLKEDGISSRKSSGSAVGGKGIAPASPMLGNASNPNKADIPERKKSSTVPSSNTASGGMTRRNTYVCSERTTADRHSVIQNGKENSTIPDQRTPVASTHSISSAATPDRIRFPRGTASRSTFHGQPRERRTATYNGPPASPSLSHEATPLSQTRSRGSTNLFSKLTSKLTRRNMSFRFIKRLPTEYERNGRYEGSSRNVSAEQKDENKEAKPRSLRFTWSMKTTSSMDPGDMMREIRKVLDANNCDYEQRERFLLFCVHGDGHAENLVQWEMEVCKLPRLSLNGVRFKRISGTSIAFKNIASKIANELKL
Chain of Serine/threonine-protein kinase Nek6 (Homo sapiens) (Q9HC98 whole entry): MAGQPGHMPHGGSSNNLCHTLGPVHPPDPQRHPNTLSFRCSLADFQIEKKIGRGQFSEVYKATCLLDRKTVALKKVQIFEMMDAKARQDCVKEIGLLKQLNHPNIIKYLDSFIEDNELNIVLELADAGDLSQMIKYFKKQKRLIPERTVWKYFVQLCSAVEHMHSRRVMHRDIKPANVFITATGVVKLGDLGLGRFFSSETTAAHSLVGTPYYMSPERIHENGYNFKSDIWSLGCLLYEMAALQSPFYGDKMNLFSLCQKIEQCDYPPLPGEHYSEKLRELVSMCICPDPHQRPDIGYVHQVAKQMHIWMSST
Chain of Phosphatidylinositol 3-kinase catalytic subunit type 3 (Homo sapiens) (Q8NEB9 whole entry): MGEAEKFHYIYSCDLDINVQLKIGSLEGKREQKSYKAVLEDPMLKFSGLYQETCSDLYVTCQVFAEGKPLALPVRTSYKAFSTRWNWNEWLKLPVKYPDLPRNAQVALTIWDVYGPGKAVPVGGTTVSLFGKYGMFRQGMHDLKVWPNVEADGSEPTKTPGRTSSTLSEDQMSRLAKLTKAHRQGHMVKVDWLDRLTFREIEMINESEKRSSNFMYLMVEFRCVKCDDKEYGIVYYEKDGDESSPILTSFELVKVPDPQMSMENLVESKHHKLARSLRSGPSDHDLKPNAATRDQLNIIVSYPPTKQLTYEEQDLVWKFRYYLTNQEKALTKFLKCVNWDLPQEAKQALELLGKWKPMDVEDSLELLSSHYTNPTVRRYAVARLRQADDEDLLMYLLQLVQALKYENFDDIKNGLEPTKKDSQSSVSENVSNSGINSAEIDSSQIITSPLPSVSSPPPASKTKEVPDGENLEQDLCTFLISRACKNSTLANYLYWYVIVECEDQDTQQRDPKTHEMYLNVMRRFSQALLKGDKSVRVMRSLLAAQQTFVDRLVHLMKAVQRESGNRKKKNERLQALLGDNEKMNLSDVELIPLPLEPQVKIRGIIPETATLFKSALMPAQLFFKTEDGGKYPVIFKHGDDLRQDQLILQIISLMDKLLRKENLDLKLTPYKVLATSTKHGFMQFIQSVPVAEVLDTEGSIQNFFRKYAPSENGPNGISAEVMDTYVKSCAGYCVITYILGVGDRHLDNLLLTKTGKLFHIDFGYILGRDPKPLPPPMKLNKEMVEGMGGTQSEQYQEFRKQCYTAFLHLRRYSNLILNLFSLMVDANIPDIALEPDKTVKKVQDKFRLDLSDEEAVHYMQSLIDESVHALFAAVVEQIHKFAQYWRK
Chain of Phosphatidylinositol 4,5-bisphosphate 3-kinase catalytic subunit beta isoform (Homo sapiens) (P42338 whole entry, looked up, canonical isoform): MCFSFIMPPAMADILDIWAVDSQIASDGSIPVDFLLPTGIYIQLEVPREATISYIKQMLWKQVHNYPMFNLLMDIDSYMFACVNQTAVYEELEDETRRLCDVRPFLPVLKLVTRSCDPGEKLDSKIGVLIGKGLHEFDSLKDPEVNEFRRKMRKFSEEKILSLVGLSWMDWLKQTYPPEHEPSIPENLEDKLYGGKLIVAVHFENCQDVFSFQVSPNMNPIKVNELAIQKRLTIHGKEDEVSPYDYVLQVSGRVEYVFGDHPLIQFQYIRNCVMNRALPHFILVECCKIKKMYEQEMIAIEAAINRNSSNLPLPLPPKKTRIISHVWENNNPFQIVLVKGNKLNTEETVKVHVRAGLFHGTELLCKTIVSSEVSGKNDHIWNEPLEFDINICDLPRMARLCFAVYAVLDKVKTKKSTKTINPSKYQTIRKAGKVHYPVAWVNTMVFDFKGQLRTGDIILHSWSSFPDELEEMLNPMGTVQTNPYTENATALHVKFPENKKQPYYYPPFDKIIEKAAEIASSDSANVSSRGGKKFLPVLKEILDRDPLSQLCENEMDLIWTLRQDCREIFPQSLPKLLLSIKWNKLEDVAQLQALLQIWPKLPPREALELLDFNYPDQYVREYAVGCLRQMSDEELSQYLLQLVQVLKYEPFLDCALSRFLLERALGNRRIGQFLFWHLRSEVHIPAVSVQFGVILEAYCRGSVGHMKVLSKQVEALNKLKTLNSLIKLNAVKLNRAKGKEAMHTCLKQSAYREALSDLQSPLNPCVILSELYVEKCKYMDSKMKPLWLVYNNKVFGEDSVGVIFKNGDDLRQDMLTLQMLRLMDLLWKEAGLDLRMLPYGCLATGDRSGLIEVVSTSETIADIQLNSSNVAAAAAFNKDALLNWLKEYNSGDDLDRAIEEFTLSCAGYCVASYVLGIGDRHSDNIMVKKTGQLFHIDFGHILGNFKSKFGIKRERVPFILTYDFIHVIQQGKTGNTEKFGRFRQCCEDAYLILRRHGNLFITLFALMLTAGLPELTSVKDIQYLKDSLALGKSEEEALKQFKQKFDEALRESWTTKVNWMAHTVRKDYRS
Chain of Calcium/calmodulin-dependent protein kinase type II subunit gamma (Homo sapiens) (Q13555 whole entry): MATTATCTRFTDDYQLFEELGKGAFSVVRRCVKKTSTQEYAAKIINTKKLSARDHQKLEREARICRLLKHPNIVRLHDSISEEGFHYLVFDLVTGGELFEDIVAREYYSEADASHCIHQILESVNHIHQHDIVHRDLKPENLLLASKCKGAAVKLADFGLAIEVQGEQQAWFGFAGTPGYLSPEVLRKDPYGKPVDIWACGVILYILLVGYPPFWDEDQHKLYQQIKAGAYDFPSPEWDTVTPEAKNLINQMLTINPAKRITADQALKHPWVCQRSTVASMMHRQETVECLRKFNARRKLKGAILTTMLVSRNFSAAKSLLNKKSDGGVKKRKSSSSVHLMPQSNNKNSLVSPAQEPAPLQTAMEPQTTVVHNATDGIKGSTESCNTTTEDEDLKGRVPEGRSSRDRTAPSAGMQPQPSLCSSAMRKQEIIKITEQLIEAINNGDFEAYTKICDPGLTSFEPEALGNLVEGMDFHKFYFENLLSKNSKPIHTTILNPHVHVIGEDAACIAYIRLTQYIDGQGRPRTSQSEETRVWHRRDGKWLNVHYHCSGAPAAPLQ

Broadly, the inhibition is the relative decrease from the control value, in per cent. For `CC(C)n1cc(-c2cc(-c3ccc(CN4CCOCC4)cc3)cnc2N)nn1`, the inhibition in test [1] is -6.7%; in test [2] it was 14.1%; in test [3], 15.9%; in test [4], 21.2%; in [5] it was -2.5%; in test [6] it was 1.8%. Moreover, the inhibition in test [7] is 3.8%; in [8], -9.5%; in test [9], -9.6%; in test [10], -4.4%; in test [11] it was -7.5%.
